The values below come from ChEMBL document CHEMBL4808171, “Structure-Activity Relationship Study and Biological Evaluation of 2-(Disubstituted phenyl)-indole-5-propanoic Acid Derivatives as GPR40 Full Agonists” (J Med Chem, 2021).

The EC50 is the concentration that produces a half-maximal response. What is called MRT last is a mean duration of stay, worked out from the concentration-time curve. One may read the Tmax as the time from dosing to the highest level. Usually half-life stands for how long it takes for the measured level to halve.

Activity calls are given as the source filed them. The calls are words filed in the database; no cut-off is given here.

Data set [1] addresses T1, Peroxisome proliferator-activated receptor gamma (Homo sapiens, UniProt P37231).
T1 sequence (P37231 whole entry): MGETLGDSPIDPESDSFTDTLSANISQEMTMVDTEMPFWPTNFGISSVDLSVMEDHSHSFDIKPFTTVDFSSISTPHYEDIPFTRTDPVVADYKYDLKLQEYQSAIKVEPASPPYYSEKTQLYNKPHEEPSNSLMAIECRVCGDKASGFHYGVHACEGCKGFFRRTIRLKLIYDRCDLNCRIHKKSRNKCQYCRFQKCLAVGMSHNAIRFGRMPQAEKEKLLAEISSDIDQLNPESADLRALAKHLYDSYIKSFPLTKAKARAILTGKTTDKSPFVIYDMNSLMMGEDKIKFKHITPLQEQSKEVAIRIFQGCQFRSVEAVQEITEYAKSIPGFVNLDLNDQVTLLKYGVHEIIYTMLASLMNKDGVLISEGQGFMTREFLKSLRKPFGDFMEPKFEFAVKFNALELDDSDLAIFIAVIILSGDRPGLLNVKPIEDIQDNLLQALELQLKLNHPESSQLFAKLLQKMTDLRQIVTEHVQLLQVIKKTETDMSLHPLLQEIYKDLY
As to the kind of experiment: Agonist activity at human PPARgamma expressed in CHO cells assessed as increase in receptor transcriptional activity incubated for 24 hrs by dual luciferase reporter gene assay. In kind it is cell-based.

Data set [2] is described as follows: MRTlast in CD-1 mouse at 10 mg/kg, po measured up to 8 hrs by LC-MS/MS analysis. The note with it: in vivo. In kind it is ADME, organism-based.
Data set [3] in a line: Tmax in CD-1 mouse at 100 mg/kg, po measured up to 8 hrs by LC-MS/MS analysis. Type of data set: ADME, organism-based. The note with it: in vivo.
Data set [4] relates to Mus musculus. As to the kind of experiment: Antidiabetic activity in db/db mouse assessed as reduction in plasma glucose level at 30 mg/kg, po pretreated 1 hr before glucose challenge measured up to 120 mins by Oral glucose tolerance test. In kind it is functional, organism-based.
For data set [5], the target named is T2, Free fatty acid receptor 1 (Homo sapiens, UniProt O14842). As to the kind of experiment: Agonist activity at GPR40 (unknown origin) expressed in CHO cells assessed as increase in cAMP level incubated for 30 mins by cAMP-Glo assay. In kind it is functional, cell-based. Background: cAMP levels reflect the balance of adenylyl cyclase and phosphodiesterase activity.

Data set [6] can be described thus: Half life in CD-1 mouse at 90 mg/kg, po measured up to 8 hrs by LC-MS/MS analysis. Type of data set: ADME, organism-based. The note with it: in vivo.
A short description of data set [7]: Tlast in CD-1 mouse at 30 mg/kg, po measured up to 8 hrs by LC-MS/MS analysis. In kind it is ADME, organism-based. The note with it: in vivo.
Data set [8] concerns the target Free fatty acid receptor 1 (Mus musculus) (UniProt Q76JU9). Briefly: Agonist activity at GPR40 in mouse MIN6 cells assessed as fold increase in 17 mM glucose-mediated insulin secretion at 1 to 10 uM incubated for 2 hrs in presence of GW1100 by ELISA relative to control. Type of data set: functional, cell-based. The note with it: dose 1-10 µM.
For data set [9], the system named is Mus musculus. Briefly: Antidiabetic activity in C57BL/6J mouse assessed as increase in plasma GLP1 level at 30 mg/kg, po measured after 30 mins in presence of KR-62436 by ELISA relative to KR-62436 treated control. Type of data set: functional. The following applies: 0.5 h.
Data set [10] is described as follows: Metabolic stability in human liver microsomes assessed as intrinsic clearance. Type of data set: ADME, Microsome. The note with it: read-out: CLH.
The target of data set [11] is T2, Free fatty acid receptor 1. As to the kind of experiment: Agonist activity at GPR40 (unknown origin) expressed in CHO cells co-expressing luc2P/CRE (Gs) assessed as firefly luciferase activity at 10 uM incubated for 24 hrs by Bright-Glo based […] luciferase reporter assay. Type of data set: functional, cell-based. Background: Reporter assays use an easily measured gene product as a stand-in for the process of interest.

Data set [12] is described as follows: Tmax in CD-1 mouse at 30 mg/kg, po measured up to 8 hrs by LC-MS/MS analysis. In kind it is ADME, organism-based. The following applies: in vivo.
The nature of data set [13]: Half life in CD-1 mouse at 30 mg/kg, po measured up to 8 hrs by LC-MS/MS analysis. Type of data set: ADME, organism-based. The following applies: in vivo.
Data set [14] concerns Mus musculus. As to the kind of experiment: Antidiabetic activity in C57BL/6J mouse assessed as increase in plasma GLP1 level at 30 mg/kg, po measured after 30 mins by ELISA relative control. Type of data set: functional, organism-based.
Data set [15] addresses T3, Free fatty acid receptor 2 (Homo sapiens, UniProt O15552).
T3 sequence (O15552 whole entry): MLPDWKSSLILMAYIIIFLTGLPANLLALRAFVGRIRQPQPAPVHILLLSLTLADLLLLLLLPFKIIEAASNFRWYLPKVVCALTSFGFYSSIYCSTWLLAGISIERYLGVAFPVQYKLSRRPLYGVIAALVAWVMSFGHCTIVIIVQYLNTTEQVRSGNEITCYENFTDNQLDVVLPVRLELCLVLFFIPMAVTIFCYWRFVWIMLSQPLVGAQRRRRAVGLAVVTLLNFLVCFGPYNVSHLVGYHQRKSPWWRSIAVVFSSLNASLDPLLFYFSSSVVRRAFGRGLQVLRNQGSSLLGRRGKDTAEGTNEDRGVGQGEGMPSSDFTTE
As to the kind of experiment: Agonist activity at FFAR2 (unknown origin). In kind it is functional.

Data set [16] deals with T4, Peroxisome proliferator-activated receptor gamma (Homo sapiens) (UniProt P37231).
T4 sequence (whole entry): T1 sequence (P37231 whole entry)
Briefly: Agonist activity at human PPARgamma expressed in CHO cells assessed as increase in receptor transcriptional activity at 1 uM incubated for 24 hrs by dual luciferase reporter gene assay relative to rosiglitazone. Type of data set: cell-based.

Data set [17] addresses Free fatty acid receptor 1 (Mus musculus) (UniProt Q76JU9). Briefly: Agonist activity at GPR40 in mouse MIN6 cells assessed as fold increase in 17 mM glucose-mediated insulin secretion at 1 to 10 uM incubated for 2 hrs by ELISA relative to control. In kind it is functional, cell-based. The note with it: filed as positive allosteric modulator, dose 1-10 µM. For orientation: ELISA stands for enzyme-linked immunosorbent assay.

Chain of Free fatty acid receptor 1 (Mus musculus) (Q76JU9 whole entry): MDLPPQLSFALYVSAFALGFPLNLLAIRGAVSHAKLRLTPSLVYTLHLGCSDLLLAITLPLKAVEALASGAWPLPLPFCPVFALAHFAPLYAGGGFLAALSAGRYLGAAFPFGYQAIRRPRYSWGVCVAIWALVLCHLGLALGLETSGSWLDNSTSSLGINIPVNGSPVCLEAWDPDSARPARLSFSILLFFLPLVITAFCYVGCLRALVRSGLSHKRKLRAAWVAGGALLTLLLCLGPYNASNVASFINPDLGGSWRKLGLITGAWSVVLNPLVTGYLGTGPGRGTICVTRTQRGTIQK
T2 sequence (O14842 whole entry): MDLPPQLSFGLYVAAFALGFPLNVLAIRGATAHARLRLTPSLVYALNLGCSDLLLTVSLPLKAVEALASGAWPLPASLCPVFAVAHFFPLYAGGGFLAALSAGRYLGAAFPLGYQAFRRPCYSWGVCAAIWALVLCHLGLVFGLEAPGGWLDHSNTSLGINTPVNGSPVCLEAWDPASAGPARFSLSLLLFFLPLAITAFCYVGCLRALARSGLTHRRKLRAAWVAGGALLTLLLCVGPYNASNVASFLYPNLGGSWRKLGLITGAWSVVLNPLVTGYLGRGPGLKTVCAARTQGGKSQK

Take `Cc1ccc(C)c(-c2cc3cc(CCC(=O)O)ccc3[nH]2)c1`: the EC50 entry was “Not Active” in data set [1] (cho), 7.53 µM in data set [5], 12.9 µM in data set [11] and above 25 µM in data set [15]. The mean residence time MRT last at 8 h in data set [2] is 2.06 h. Moreover, the Tmax in data set [3] stood at 0.44 h; in [12], 0.33 h. Further, the result in the data set with Mus musculus [4] and with Mus musculus [14] was Active. The values for the half-life in data set [6] and in data set [13] were 1.36 h and 1.33 h, respectively. The compound further displayed a Tlast in data set [7] of 8 h. Besides, the result in [8] was inactive. Further, the Activity in the data set on Mus musculus [9] came out at 163%. In addition, the microsomal CLint in [10] was at most 4 µL/min/mg.
In the case of `Cc1cc(F)ccc1-c1cc2cc(CCC(=O)O)ccc2[nH]1`, the EC50 in data set [1] (read-out: EC50) was 56.9 µM; in data set [5] it was 0.681 µM; in data set [11], 0.521 µM; in [15] it was above 25 µM. In data set [2], this compound had an MRT last at 8 h of 1.23 h. In addition, the Tmax in [3] and in [12] was 0.44 h throughout. The half-life is 1.4 h in data set [6] and 1.16 h in data set [13]. The compound further gave a Tlast in [7] of 8 h. The Emax in data set [16] came out at 32.5%. Moreover, the fold change (FC) in data set [17] turned out to be 1.16. For the same compound, the result in data set [8] was inactive. For the same compound, the microsomal CLint in data set [10] was at most 4 µL/min/mg.
